Measurements: US6242173A, “Immunoassays for catalytically-active, serine proteases” (University of Vermont and State Agriculatural College, priority 1992, dated 2001)
Entries after “also recorded” stand apart in the source; their conditions may differ.

Assays:
[1] = target: T1, Human Xa (Homo sapiens, UniProt P00742); assay: Fluorophore-protein ratios by absorbance; format: binding; details: isolated labeled protein
T1 construct: from tissue; host or cells: fresh frozen human plasma

[2] = target: bovine Xa (Bos taurus, UniProt P00743); assay: Fluorophore-protein ratios by absorbance; format: binding; details: isolated labeled protein
bovine Xa, sequence (P00743 234-492 limits assumed): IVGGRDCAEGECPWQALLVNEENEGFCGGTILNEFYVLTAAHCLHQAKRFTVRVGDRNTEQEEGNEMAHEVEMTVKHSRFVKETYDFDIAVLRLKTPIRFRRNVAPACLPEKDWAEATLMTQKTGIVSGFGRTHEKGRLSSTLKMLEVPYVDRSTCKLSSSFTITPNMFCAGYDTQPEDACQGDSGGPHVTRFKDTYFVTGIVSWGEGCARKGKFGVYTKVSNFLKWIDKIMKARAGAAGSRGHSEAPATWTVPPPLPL
bovine Xa, sequence (P00743 41-180 partner limits assumed): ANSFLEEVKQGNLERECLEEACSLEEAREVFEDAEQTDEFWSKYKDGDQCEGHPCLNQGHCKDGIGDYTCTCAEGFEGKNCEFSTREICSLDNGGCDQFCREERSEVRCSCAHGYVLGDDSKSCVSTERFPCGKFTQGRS

[3] = target: T2, thrombin (Homo sapiens, UniProt P00734); assay: Blocking of the reaction of thrombin with synthetic substrate S2238; format: biochemical; details: solution in 1.0 mM HCl
T2 construct: from tissue; host or cells: fresh frozen human plasma
Description: FPRck.2HCl (Calbiochem) (5.0 mg, […]) was dissolved in methanol (1.0 mL) and treated with 2,6-dansyl chloride (Molecular Probes) (2.6 mg, 9.5 μmoles) in DMF (1.0 mL). The solution was mixed and treated with 4-methylmorpholine (20 μL, 16 μmoles). After 20 minutes at 25° C., the reaction was stopped by addition of 1.0 M HCl (100 μL) and the mixture was applied directly to a SEPHADEX LH-20 column (1×30 cm, in methanol). The elution was followed by fluorescence, A280, Sakaguchi stain and thin layer chromatography. The product appeared as a single fluorescent, Sakaguchi positive spot Rf =0.14 (2:1 chloroform:methanol on Bakerflex silica gel). The pooled sample was evaporated to an oil and taken up in 1.0 mM HCl. […] The solution was lyophilized to an oil which was taken up in 10.0 mM HCl (3.8 mL) and frozen. Final concentration (determined by A360) was 1.0 mM. Yield was 3.8 μmoles or 40%.
Factor Xa: In a one mL cuvette, 22.5 μM S2222 in Hepes/saline pH=7.4 was treated with 1-10 μL of the factor Xa preparation. The mixture was stirred briefly and the absorbance at 405 nm followed in a Cary 219 UV/visible spectrophotometer. The rate was taken for the initial linear phase. Similar methods were used for thrombin (S2238), plasmin (S2251) and tPA (S2238). Hemker, H. C. (1983) in Handbook of Synthetic Substrates: For the Coagulation and Fibrinolytic Systems. Martinus Nijhogg Publishers, Boston.

[4] = target: tissue factor (Homo sapiens, UniProt P13726); assay: Blocking of tissue factor, tissue factor specific activity; format: biochemical
tissue factor, sequence (P13726 33-295): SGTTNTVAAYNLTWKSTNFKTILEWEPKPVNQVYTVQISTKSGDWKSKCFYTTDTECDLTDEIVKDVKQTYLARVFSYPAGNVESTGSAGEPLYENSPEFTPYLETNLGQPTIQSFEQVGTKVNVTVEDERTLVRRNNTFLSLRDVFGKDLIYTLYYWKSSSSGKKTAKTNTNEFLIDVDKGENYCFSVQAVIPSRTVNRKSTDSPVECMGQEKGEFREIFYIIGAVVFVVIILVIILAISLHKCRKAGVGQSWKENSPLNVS

[5] = target: T3, factor VIIa (hVIIa) (Homo sapiens, UniProt P08709); assay: Screening of protein/BC-PPACK reactions, avidin-biotin-peroxidase blot; format: binding; details: 10 fold molar excess twice, overnight
T3 construct: Human factor VII was converted to VIIa by incubation for 1 hour with a 0.2% (w/w) aliquot of human Xa; from tissue; host or cells: fresh frozen human plasma; VII converted to VIIa with human Xa, or VIIa already present in the isolate
T3 sequence (P08709 213-466 limits assumed): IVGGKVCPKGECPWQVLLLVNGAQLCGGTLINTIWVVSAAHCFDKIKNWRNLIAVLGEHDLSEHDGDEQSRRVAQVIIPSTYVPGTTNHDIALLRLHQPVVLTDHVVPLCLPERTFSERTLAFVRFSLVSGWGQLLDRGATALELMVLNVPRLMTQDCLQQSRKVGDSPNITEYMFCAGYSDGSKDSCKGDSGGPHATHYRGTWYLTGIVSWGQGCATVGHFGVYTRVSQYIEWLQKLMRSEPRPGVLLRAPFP
T3 sequence (P08709 61-212 partner limits assumed): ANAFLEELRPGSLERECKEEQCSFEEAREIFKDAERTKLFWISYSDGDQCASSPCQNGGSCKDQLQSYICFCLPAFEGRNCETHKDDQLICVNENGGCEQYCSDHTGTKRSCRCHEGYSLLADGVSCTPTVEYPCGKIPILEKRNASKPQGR
Description: (§1) Samples of purified enzymes, zymogens, or enzyme-zymogen mixtures were treated with BC-PPACK as follows: 10-30 μg samples of protein at 0.5 mg/mL in Hepes (20 mM)/NaCl (150 mM) pH=7.4 was reacted with 10 fold molar excess of BC-PPACK for 30 minutes, followed by a second 10 fold aliquot and overnight incubation at room temperature. Samples were then reduced with 2-mercapto-ethanol and prepared for PAGE gel electrophoresis either on 12×12 cm or PhastGel systems. After electrophoresis, the gels were blotted to nitrocellulose using tris/glycine methanol transfer buffer. The nitrocellulose was then blocked with TWEEN reagent, washed with tris/glycine and reacted with avidin-biotin-peroxidase. Development with 4-chloronapthtalene visualized the biotinylated proteins.

[6] = target: T4, factor Xa (hXa) (Homo sapiens, UniProt P00742); assay: as above; format: binding; details: 10 fold molar excess twice, overnight
T4 construct: from tissue; host or cells: fresh frozen human plasma
T4 sequence (P00742 235-488 limits assumed): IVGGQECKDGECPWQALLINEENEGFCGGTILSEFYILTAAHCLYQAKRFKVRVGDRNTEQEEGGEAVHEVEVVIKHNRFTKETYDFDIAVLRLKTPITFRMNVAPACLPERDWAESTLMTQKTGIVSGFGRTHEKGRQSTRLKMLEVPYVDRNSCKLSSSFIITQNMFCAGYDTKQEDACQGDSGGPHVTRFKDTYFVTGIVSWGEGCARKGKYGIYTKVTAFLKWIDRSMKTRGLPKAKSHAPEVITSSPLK
T4 sequence (P00742 41-179 partner limits assumed): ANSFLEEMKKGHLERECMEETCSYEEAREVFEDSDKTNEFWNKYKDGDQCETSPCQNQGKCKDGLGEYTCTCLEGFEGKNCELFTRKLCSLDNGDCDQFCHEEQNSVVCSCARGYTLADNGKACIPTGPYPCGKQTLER
Description: as §1

[7] = target: T5, hII (Homo sapiens, UniProt P00734); assay: as above; format: binding; details: zymogen; 10 fold molar excess twice, overnight
T5 construct: Except as noted, all proteins were isolated from fresh frozen human plasma; from tissue; host or cells: fresh frozen human plasma
Description: as §1

[8] = target: T6, hPg (Homo sapiens, UniProt P00747); assay: as above; format: binding; details: zymogen; 10 fold molar excess twice, overnight
T6 construct: Plasminogen was isolated by passing thawed, aprotinin treated plasma over lysine-Sepharose; from tissue; host or cells: human plasma (lysine-Sepharose)
T6 sequence (P00747 20-810 limits assumed): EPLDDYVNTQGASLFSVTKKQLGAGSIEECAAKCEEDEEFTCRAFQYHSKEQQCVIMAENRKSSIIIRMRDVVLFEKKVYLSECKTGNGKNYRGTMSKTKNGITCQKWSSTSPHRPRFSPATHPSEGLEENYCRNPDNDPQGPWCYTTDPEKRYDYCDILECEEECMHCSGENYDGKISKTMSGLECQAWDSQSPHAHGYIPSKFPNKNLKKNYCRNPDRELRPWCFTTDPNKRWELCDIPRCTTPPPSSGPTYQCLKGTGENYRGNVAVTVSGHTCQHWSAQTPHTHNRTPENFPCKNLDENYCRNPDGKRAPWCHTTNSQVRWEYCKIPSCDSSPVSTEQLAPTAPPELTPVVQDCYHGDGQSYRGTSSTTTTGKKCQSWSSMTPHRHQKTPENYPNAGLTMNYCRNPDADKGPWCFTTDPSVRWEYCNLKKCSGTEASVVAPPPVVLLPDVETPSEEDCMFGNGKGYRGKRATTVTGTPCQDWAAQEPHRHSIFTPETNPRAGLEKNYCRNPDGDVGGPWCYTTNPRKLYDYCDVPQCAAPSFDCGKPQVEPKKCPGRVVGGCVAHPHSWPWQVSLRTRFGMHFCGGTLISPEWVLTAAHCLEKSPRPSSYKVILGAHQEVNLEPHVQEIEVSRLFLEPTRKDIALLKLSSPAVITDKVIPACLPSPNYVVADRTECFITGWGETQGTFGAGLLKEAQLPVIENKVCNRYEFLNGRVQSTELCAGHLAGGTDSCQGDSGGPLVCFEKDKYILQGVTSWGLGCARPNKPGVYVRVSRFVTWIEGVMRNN
Description: as §1

[9] = target: T7, hVII (Homo sapiens, UniProt P08709); assay: as above; format: binding; details: zymogen; 10 fold molar excess twice, overnight
T7 construct: Except as noted, all proteins were isolated from fresh frozen human plasma; from tissue; host or cells: fresh frozen human plasma
T7 sequence (P08709 61-466): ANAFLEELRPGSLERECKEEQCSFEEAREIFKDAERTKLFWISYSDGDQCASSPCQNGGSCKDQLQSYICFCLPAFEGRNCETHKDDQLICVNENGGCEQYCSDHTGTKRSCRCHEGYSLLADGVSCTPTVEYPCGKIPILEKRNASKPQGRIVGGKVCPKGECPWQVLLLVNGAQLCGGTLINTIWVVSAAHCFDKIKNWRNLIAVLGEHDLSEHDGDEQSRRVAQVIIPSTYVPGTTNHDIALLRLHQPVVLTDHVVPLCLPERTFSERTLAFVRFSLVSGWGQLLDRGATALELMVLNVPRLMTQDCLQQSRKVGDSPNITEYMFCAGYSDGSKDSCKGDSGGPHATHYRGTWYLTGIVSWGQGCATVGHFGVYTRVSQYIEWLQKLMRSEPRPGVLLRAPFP
Description: as §1

[10] = target: T8, hX (Homo sapiens, UniProt P00742); assay: as above; format: binding; details: zymogen; 10 fold molar excess twice, overnight
T8 construct: Except as noted, all proteins were isolated from fresh frozen human plasma; from tissue; host or cells: fresh frozen human plasma
T8 sequence (P00742 183-488 limits assumed): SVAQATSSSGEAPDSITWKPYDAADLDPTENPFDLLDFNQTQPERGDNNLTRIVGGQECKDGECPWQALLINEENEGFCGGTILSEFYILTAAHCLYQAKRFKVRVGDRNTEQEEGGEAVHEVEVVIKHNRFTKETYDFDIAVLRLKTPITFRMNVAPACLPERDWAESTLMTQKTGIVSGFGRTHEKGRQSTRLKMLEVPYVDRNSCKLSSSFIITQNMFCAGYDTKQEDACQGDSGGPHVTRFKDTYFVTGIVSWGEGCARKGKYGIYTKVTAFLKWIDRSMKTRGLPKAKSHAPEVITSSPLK
T8 sequence (P00742 41-179 partner limits assumed): as the sequence (P00742 41-179 partner limits assumed) above
Description: as §1

[11] = target: T9, plasmin (hPm) (Homo sapiens, UniProt P00747); assay: as above; format: binding; details: 10 fold molar excess twice, overnight
T9 construct: Plasmin was prepared from plasminogen by treatment with 1:200 (weight:weight) of urokinase; from tissue; host or cells: human plasma (lysine-Sepharose)
T9 sequence (P00747 581-810 limits assumed): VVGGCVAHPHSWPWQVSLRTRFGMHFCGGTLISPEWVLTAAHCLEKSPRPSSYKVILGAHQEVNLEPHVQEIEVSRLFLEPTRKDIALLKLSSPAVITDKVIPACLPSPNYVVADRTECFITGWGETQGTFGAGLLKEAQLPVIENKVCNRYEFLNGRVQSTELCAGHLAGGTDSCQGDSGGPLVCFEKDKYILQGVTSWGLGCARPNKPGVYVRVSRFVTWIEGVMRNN
T9 sequence (P00747 97-580 partner limits assumed): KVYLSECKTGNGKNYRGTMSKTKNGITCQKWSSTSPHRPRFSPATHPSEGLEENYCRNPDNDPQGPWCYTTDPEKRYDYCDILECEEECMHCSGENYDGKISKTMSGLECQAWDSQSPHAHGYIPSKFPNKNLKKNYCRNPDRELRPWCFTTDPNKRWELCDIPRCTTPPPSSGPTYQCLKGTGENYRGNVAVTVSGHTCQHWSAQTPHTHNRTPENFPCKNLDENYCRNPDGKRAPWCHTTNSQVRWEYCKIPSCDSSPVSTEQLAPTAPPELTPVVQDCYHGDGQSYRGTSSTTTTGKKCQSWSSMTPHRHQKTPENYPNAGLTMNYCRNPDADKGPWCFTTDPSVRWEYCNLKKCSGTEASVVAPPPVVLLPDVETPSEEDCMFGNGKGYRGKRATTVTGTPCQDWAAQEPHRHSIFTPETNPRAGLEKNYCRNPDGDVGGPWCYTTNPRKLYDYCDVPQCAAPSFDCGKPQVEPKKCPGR
Description: as §1

[12] = target: T10, thrombin (hIIa) (Homo sapiens, UniProt P00734); assay: as above; format: binding; details: 10 fold molar excess twice, overnight
T10 construct: from tissue; host or cells: fresh frozen human plasma
Description: as §1

[13] = system: tissue plasminogen activator (tTPA) (1 and 2 chain); assay: as above; format: binding, human; details: 10 fold molar excess twice, overnight
tissue plasminogen activator (tTPA) (1 and 2 chain), sequence (P00750 311-562 limits assumed): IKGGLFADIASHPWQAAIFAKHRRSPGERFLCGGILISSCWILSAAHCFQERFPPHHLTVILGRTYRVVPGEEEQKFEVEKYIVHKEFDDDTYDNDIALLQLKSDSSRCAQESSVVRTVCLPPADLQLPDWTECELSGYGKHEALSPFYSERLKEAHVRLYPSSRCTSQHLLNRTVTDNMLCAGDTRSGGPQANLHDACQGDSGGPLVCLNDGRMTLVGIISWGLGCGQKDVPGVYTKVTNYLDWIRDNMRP
Description: as §1
Plasminogen was isolated by passing thawed, aprotinin treated plasma over lysine-Sepharose and eluting the bound plasminogen with ε-aminocaproic acid (ECAC) (Castellino, F. J. and Powell, J. R. (1980) Methods Enzymol. 80:365-378). A second pass over the lysine SEPHAROSE gel, followed by separation from aprotinin on SEPHAROSE gel G-100 gave plasminogen which was homogeneous when evaluated by gel electrophoresis. Plasmin was prepared from plasminogen by treatment with 1:200 (weight:weight) of urokinase in Hepes/saline. Tissue plasminogen activator (tPA) was recombinant human tPA (Genentech) and contained both single chain and two chain forms. Urokinase was a generous gift from Dr. David Stump and was two chain.

[14] = target: avidin (Gallus gallus, UniProt P02701); assay: Avidin-biotin interaction (fluorescein-avidin, avidin-acrylic, avidin-peroxidase blotting); details: free compound, column fractions in 1.0 mM HCl
avidin, sequence (P02701 25-152): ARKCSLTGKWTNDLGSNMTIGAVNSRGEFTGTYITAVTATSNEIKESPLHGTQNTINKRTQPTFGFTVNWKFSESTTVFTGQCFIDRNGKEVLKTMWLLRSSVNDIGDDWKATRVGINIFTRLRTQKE

[15] = system: activated human plasma; assay: Reaction of activated human plasma with BC-YGR-CK, blot; details: thromboplastin and Ca+2 (4 mM) activated plasma, timed aliquots, final CK concentration 1.2 μM
Description: Normal human plasma (200 μL) at 37° C. was activated with thromboplastin (10 μL) and Ca^+2 (4 mM). At timed intervals, 20 uL aliquots were removed and added to 2 μL aliquots of […] BC-YGR-CK (final CK concentration was 1.2 μM). A clot was observed after 122 seconds. The samples were then run on PhastGel electrophoresis and blotted to nitrocellulose.

[16] = target: T11, factor VIIa (Homo sapiens, UniProt P08709); assay: Removal of active enzyme from zymogen with biotinylated chloromethyl ketone and avidin matrix; details: human factor VII containing factor VIIa; listed as BioCap-YGRck
T11 construct: Human factor VII was converted to VIIa by incubation for 1 hour with a 0.2% (w/w) aliquot of human Xa; from tissue; host or cells: fresh frozen human plasma; VII converted to VIIa with human Xa, or VIIa already present in the isolate
T11 sequence (P08709 213-466 limits assumed): T3 sequence (P08709 213-466 limits assumed)
T11 sequence (P08709 61-212 partner limits assumed): T3 sequence (P08709 61-212 partner limits assumed)

[17] = target: T1, Human Xa; assay: Reaction of Human Xa with BC-PPACK, residual activity vs. S2222; format: biochemical

T1 sequence (P00742 235-488 limits assumed): as the sequence (P00742 235-488 limits assumed) above
T1 sequence (P00742 41-179 partner limits assumed): as the sequence (P00742 41-179 partner limits assumed) above

Compound | biotinylated protein on blot [5] | biotinylated protein on blot [6] | biotinylated protein on blot [7] | biotinylated protein on blot [9] | biotinylated protein on blot [10] | biotinylated protein on blot [12] | biotinylated protein on blot [13] | also measured
5 (and 6) Carboxylfluoresceinyl-L-glutamylglycyl-L-arginine chloromethyl ketone hydrochloride [Fluoresceinyl-EGRCk] | – | – | – | – | – | – | – | Fluorophore/Protein [1]: 1.06 mole/mole; Fluorophore/Protein [2]: 1.02 mole/mole
CN(C)c1ccc2cc(S(=O)(=O)N[C@H](Cc3ccccc3)C(=O)N3CCC[C@H]3C(=O)N[C@@H](CCCNC(=N)N)C(=O)CCl)ccc2c1.Cl [2,6-dansyl-FPRck.HCl, 6-Dimethylaminonapthalene-2-sulfonyl-D-phenylalanyl-L-prolyl-L-arginine chloromethyl ketone hydrochloride] | – | – | – | – | – | – | – | blocking of reaction of thrombin with S2238 [3]: rapidly blocked
NC(N)=NCCC[C@H](NC(=O)[C@@H]1CCCN1C(=O)[C@H](N)Cc1ccccc1)C(=O)CCl [FPRck] | – | – | – | – | – | – | – | decrease of specific activity of tissue factor ([4]; 1.0 mM, 24 hours): 10-20%
O=C(O)c1cc[c]([Hg][Cl])cc1 [p-chloromercuribenzoate] | – | – | – | – | – | – | – | decrease of specific activity of tissue factor ([4]; 100 µM, 2 hours): 10-20%
Biotinyl-D-phenylalanyl-L-prolyl-L-arginine Chloromethyl Ketone [Biotinyl-PPACK] | none of the proteins showed a positive blot | none of the proteins showed a positive blot | none of the proteins showed a positive blot | none of the proteins showed a positive blot | none of the proteins showed a positive blot | none of the proteins showed a positive blot | none of the proteins showed a positive blot | biotinylated protein on blot [8]: none of the proteins showed a positive blot; biotinylated protein on blot [11]: none of the proteins showed a positive blot; enhancement of the fluorescence of fluorescein-avidin [14]: positive
Biotinyl-ε-aminocaproyl-L-tyrosylglycyl-L-arginine chloromethyl ketone [BC-YGR-CK] | Identical results | Identical results | Identical results | Identical results | Identical results | Identical results | Identical results | biotinylated proteins on blot of activated plasma [15]: several biotinylated proteins; factor VIIa remaining after treatment and avidin matrix, gel analysis [16]: no factor VIIa remained; also recorded: no contamination with factor VIIa
biotinyl-ε-aminocaproyl-D-phenylalanyl-L-prolyl-L-arginine chloromethyl ketone [BC-PPACK] | positive | positive | No reaction | No reaction | No reaction | positive | positive | relative activity (vs. S2222) ([17]; 0.46 equivalents added): 0.62; relative activity (vs. S2222) ([17]; 0.92 equivalents added): 0.13; relative activity (vs. S2222) ([17]; 1.38 equivalents added): 0.01; relative activity (vs. S2222) ([17]; 1.84 equivalents added): 0.00; relative activity (vs. S2222) ([17]; 2.76 equivalents added): 0.00; biotinylated protein on blot [8]: No reaction; biotinylated protein on blot [11]: positive
